Test system: Menin on chromatin in MV4;11 MEN1-WT cells
Assay: ChIP-Seq of Menin chromatin occupancy
Type: cell-based, human
Conditions: 100 nM
Protocol: Cells were sequentially cross-linked using 2 mM DSG disuccinimidyl glutarate for 30 min and a final concentration of 1% formaldehyde for 10 min at room temperature (20-25° C.) and stopped with 125 mM glycine. Cells were lysed in lysis buffer (20 mM Tris-HCl at pH 7.5. 300 mM NaCl, 2 mM EDTA, 0.5% NP40, 1% Triton X-100, 1 mM PMSF, PIC) and incubated on ice for 30 min. The resuspended cells were then dounced in an ice-cold homogenizer. Nuclear pellets were collected and resuspended in shearing buffer (0.1% SDS, 0.5% N-lauroylsarcosine, 1% Triton X-100, 10 mM Tris-HCl at pH 8.1, 100 mM NaCl, 1 mM EDTA. 1 mM PMSF, PIC). Isolated chromatin was fragmented to an average size of 200-600 bp with a bioruptor (Diagenode). Precleared chromatin was immunoprecipitated overnight at 4° C. and immunocomplexes were collected with protein A Dynabeads. […] Reads were aligned to human GRCh38/hg38 genome using STAR 2.7.5. Aligned BAM files were sorted, duplicate reads marked and removed, and deduplicated BAMs indexed using Broad picard tools v2.9.4. Signal intensities around transcription start sites (TSS, +/−3000 bp) were quantified using BEDtools (v. 2.28.0) and data visualizations were produced using IGVtools (TDF signal pileups; v2.3.75) and ngs.plot (pileup heatmaps/torpedo plots). […]

For `CCN(C(=O)c1cc(F)ccc1Oc1cncnc1N1CC2(CCN(C[C@H]3CC[C@H](NS(=O)(=O)CC)CC3)CC2)C1)C(C)C` [SNDX-5613, revumenib], which “displacement of Menin from chromatin” value is on record?
The value was “near-complete and global displacement of Menin from chromatin”.

Source: patent US20260185163A1, “MEN1 MUTATIONS AND USES THEREOF” (DANA-FARBER CANCER INSTITUTE, INC., priority 2022, published 2026)
